Data: PMC6720094, “Comparative pharmacokinetics of oxyresveratrol alone and in combination with piperine as a bioenhancer in rats” (BMC Complementary and Alternative Medicine, 2019)
Like-named read-outs stand apart in the source and are kept apart here.

Experiments:
physchem = settings: %Recovery (stability)
[1] = rat, in vivo, cited from earlier work
in vivo = settings: rat
Method: Rats weighing more than 400 g were enrolled in the pharmacokinetic experiments. All rats were placed into metabolic cages and fasted overnight before the pharmacokinetic experiments. The rats were divided randomly into four groups (n = 6 in each): oxyresveratrol 100 mg/kg p.o., oxyresveratrol 100 mg/kg plus piperine 10 mg/kg p.o., oxyresveratrol 10 mg/kg i.v., and oxyresveratrol 10 mg/kg plus piperine 1 mg/kg i.v. All test formulations were freshly prepared by dissolving the compounds in 40% DMSO/NSS to obtain clear solution. The preparations were administered by oral gavage or intravenous administration via the lateral tail vein. […] Plasma samples were collected at baseline (0 h) and 24 h from a subset of rats for determination of AST, ALT and creatinine concentrations, performed by Professional Laboratory Management Crop Co., Ltd. Determination of the creatinine level was performed by the chemiluminescence method, while AST and ALT determination was performed with a kinetic method and measured using an automated analyzer (Cobas 6000; Hoffmann–La Roche, Ltd.). […]
The pharmacokinetic parameters were calculated by non–compartmental analysis using PK Solution 2.0 software (Summit Research Service). […] The absolute oral bioavailability of oxyresveratrol was calculated as (AUCp.o./dosep.o.)/(AUCi.v./dosei.v.). […]

P–glycoprotein [2] = settings: cited from earlier work
[3] = Tissue distribution, tissue to plasma ratio (Kp) in rats; assay type: in vivo
male Wistar rats = assay: Tolerability in rats (AST, ALT, creatinine, physical appearance); assay type: in vivo, rat
Method: Rats weighing more than 400 g were enrolled in the pharmacokinetic experiments. All rats were placed into metabolic cages and fasted overnight before the pharmacokinetic experiments. The rats were divided randomly into four groups (n = 6 in each): oxyresveratrol 100 mg/kg p.o., oxyresveratrol 100 mg/kg plus piperine 10 mg/kg p.o., oxyresveratrol 10 mg/kg i.v., and oxyresveratrol 10 mg/kg plus piperine 1 mg/kg i.v. All test formulations were freshly prepared by dissolving the compounds in 40% DMSO/NSS to obtain clear solution. The preparations were administered by oral gavage or intravenous administration via the lateral tail vein. All rats were anaesthetized with 5% isoflurane by chamber induction method to prevent pain and injury during drug administration and blood collection. The blood collection was conducted at 0, 0.083 (5 min), 0.25 (15 min), 0.5 (30 min), 1, 2, 4, 8, 16 and 24 h in unconscious rats. For tissue collection, euthanization with overdose isoflurane > 10% by chamber induction method was conducted at 0.083 (5 min), 1, 2 and 4 h after oral gavage or intravenous administration, and death was confirmed by exsanguination. […] Plasma samples were collected at baseline (0 h) and 24 h from a subset of rats for determination of AST, ALT and creatinine concentrations, performed by Professional Laboratory Management Crop Co., Ltd. Determination of the creatinine level was performed by the chemiluminescence method, while AST and ALT determination was performed with a kinetic method and measured using an automated analyzer (Cobas 6000; Hoffmann–La Roche, Ltd.).

[4] = rat, in vivo, ip, 40 mg/kg; cited from earlier work
UGT [5] = system: UGT; parameters: method as in PMID 17487234; settings: cited from earlier work
UGT [6] = system: UGT; parameters: method as in PMID 3917507; settings: mice ref 19, cited from earlier work
P–glycoprotein [7] = system: P–glycoprotein; parameters: method as in PMID 12130727; settings: cited from earlier work
[8] = intravenous, oxyresveratrol 10 mg/kg (+ piperine 1 mg/kg in combination), postdose (24 h)
[9] = intravenous, oxyresveratrol 10 mg/kg (+ piperine 1 mg/kg in combination), predose (0 h) baseline
[10] = oral, oxyresveratrol 100 mg/kg (+ piperine 10 mg/kg in combination), postdose (24 h)
[11] = oral, oxyresveratrol 100 mg/kg (+ piperine 10 mg/kg in combination), predose (0 h) baseline

Oc1cc(O)cc(C=Cc2ccc(O)cc2O)c1 [Oxyresveratrol, 2,4,3′,5′–tetrahydroxystilbene]
recovery at 100 ng/mL (physchem): 92.6% | recovery at 400 ng/mL (physchem): 86.3% | recovery at 12 h, 10 ng/mL (physchem): 63.5% | recovery at 12 h, 100 ng/mL (physchem): 73.5% | recovery at 12 h, 400 ng/mL (physchem): 68.2% | recovery at 30 d, 10 ng/mL (physchem): 72.4% | recovery at 30 d, 100 ng/mL (physchem): 85.8% | recovery at 30 d, 400 ng/mL (physchem): 81.1% | %Recovery (stability) (100 ng/mL): 72.84% | %Recovery (stability) (400 ng/mL): 70.43% | Tmax ([1]; po): approximately 15 min | Absolute oral bioavailability [1]: 10–15% | dose excreted (in vivo; Wistar, in vivo, iv, Percentage recovery of unchanged oxyresveratrol in urine): 5 to 10% | Unchanged oxyresveratrol found in feces (in vivo; 0 to 48 h after intravenous dosing): < 1% | P–glycoprotein substrate (P–glycoprotein [2]): substrate of P–glycoprotein | Kp ([3]; male, Wistar, in vivo, 100 mg/kg, rat, oral gavage, from 5 min to 4 h, read-out: Tissue to plasma ratio of oxyresveratrol, other internal organs (not stomach, small intestine)): 1 to 100 | Kp at 5 min ([3]; male, Wistar, rat, in vivo, iv): 10 to 100 | Oxyresveratrol level in the brain ([3]; rat, 1, 2 and 4 h after intravenous administration): Very low levels | ALT (male Wistar rats; [8]): 5.80 ± 1.09 U/L | AST (male Wistar rats; [8]): 45.40 ± 3.78 U/L | Creatinine (male Wistar rats; [8]): 0.32 ± 0.08 mg/dL | ALT (male Wistar rats; [9]): 5.00 ± 0.00 U/L | AST (male Wistar rats; [9]): 42.00 ± 7.15 U/L | Creatinine (male Wistar rats; [9]): 0.25 ± 0.15 mg/dL | Physical appearance (male Wistar rats; male Wistar rats, pre-dose and post-dose (24 h), i.v. and oral): normal physical appearance | ALT (male Wistar rats; [10]): 6.83 ± 3.25 U/L | AST (male Wistar rats; [10]): 40.83 ± 22.39 U/L | Creatinine (male Wistar rats; [10]): 0.17 ± 0.01 mg/dL | ALT (male Wistar rats; [11]): 9.40 ± 9.28 U/L | AST (male Wistar rats; [11]): 32.40 ± 16.47 U/L | Creatinine (male Wistar rats; [11]): 0.17 ± 0.01 mg/dL | Concentration reaching the brain [4]: only a minimal concentration reached the brain

O=C(/C=C/C=C/c1ccc2c(c1)OCO2)N1CCCCC1 [piperine, Piperine]
Hepatic microsomal activity of UGT in vitro (UGT [5]): reduces | Decrease of in vivo UGT activity (UGT [6]; piperine 10 mg/kg p.o.): 36% | Decrease of in vivo UGT activity (UGT [6]; piperine 25 mg/kg p.o.): 55% | Inhibition of P–glycoprotein (P–glycoprotein [7]): inhibit
